# Values of other authors in US12616206B2, “Graphene-silver nanocomposites and uses for same as an antimicrobial composition” (ZENTEK LTD., priority 2020, dated 2026).
# How the values were obtained:
# Conditions in all cases: literature value, source by footnote a-g
# Vibrio cholerae = system: Vibrio cholerae
# Candida albicans = system: Candida albicans
# Salmonella typhi = system: Salmonella typhi
# Streptococcus pyogenes = system: Streptococcus pyogenes
compound,measurement,setting,value
"O=[N+]([O-])[O-].[Ag+] [AgNO3, silver nitrate]",MIC,Vibrio cholerae,70 ^c μg/mL
same,MIC,Candida albicans,4.9 ^f μg/mL
same,MIC,Salmonella typhi,110 ^c μg/mL
same,MIC,Streptococcus pyogenes,80 ^c μg/mL
